The values that follow come from patent US20170217946A1, “AMINO-SUBSTITUTED ISOXAZOLES” (Bayer Pharma Aktiengesellschaft, priority 2014, published 2017).

The experiment concerns the target T1, human kinase Mps-1 (Homo sapiens, UniProt P33981).
T1 construct: human full length recombinant Mps-1 kinase; GST (N); purchased Invitrogen, Karslruhe, Germany PV4071
T1 sequence (P33981 1-857): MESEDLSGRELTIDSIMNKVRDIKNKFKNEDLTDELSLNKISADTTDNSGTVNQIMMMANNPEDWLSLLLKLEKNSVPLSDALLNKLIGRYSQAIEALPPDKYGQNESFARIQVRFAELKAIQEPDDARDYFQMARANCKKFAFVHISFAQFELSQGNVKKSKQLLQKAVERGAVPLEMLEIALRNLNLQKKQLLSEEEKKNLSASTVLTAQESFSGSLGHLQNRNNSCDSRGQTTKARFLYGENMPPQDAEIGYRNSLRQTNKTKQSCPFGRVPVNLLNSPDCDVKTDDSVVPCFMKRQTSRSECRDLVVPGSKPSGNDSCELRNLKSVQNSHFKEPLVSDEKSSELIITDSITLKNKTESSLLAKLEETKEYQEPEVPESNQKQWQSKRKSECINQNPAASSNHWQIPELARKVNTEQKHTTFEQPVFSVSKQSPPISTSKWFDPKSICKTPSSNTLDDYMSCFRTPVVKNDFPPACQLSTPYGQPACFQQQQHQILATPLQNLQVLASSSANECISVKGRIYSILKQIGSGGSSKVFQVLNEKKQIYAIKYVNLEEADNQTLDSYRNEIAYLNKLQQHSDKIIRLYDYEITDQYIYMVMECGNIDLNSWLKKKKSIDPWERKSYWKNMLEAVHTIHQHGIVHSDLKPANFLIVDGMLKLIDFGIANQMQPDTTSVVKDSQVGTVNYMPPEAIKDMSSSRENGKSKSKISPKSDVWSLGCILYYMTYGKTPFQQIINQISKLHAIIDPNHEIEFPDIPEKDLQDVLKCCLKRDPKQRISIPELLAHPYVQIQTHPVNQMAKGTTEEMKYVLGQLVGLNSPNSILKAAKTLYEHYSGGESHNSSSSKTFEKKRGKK
The experiment in a line: Mps-1 kinase assay (TR-FRET). The experiment is classed as biochemical. As to conditions: 10 μM ATP; read-out: Mps1 avg (IC50). The procedure: The human kinase Mps-1 phosphorylates a biotinylated substrate peptide. Detection of the phosphorylated product is achieved by time-resolved fluorescence resonance energy transfer (TR-FRET) from Europium-labelled anti-phospho-Serine/Threonine antibody as donor to streptavidin labelled with cross-linked allophycocyanin (SA-XLent) as acceptor. Compounds are tested for their inhibition of the kinase activity.
N-terminally GST-tagged human full length recombinant Mps-1 kinase (purchased from Invitrogen, Karslruhe, Germany, cat. no PV4071) was used. […]
The resulting mixture was incubated 1 h at 22° C. to allow the binding of the phosphorylated peptide to the anti-phospho(Ser/Thr)-Europium-antibody. Subsequently the amount of phosphorylated substrate was evaluated by measurement of the resonance energy transfer from the Europium-labelled anti-phospho(Ser/Thr) antibody to the Streptavidin-XLent. Therefore, the fluorescence emissions at 620 nm and 665 nm after excitation at 350 nm was measured in a Viewlux TR-FRET reader (PerkinElmer LAS, Rodgau-Jügesheinn, Germany). The “blank-corrected normalized ratio” (a Viewlux specific readout, similar to the traditional ratio of the emissions at 665 nm and at […], in which blank and Eu-donor crosstalk are subtracted from the 665 nm signal before the ratio is calculated) was taken as the measure for the amount of phosphorylated substrate. […]

With `Cc1noc(Nc2cnc(C(=O)NC3CCN(CC(F)F)CC3)cn2)c1C(=O)Nc1ccc(F)c(F)c1` [Example 1b, N-[1-(2,2-Difluoroethyl)piperidin-4-yl]-5-({4-[(3,4-difluorophenyl)carbamoyl]-3-methyl-1,2-oxazol-5-yl}amino)pyrazine-2-carboxamide], the IC50 amounted to 16 µM.
